{"source": "patent US20230255954A1", "about": "“INTERLEUKIN 33 (IL-33) INHIBITION FOR TREATMENT OF CANCER, FIBROSIS AND INFLAMMATION” (The General Hospital Corporation, priority 2020, published 2023)", "key": {"[1]": {"system": "DNFB treated mice back skin", "assay": "DNFB chronic skin inflammation model with pitavastatin", "format": "in vivo, mouse", "protocol": "Four- to six-week old male and female mice were shaved on their abdomen and sensitized to 50 μL 0.5% 1-Fluoro-2,4-dinitrobenzene (DNFB, Millipore Sigma, St. Louis, Mo., catalog no. 42085) dissolved in acetone plus olive oil at 3:1 ratio (refer to as acetone). Two days after first sensitization, mice were re-sensitized to 50 μL 0.25% DNFB on their abdomen. After 5 days, mice were challenged with 100 μL 0.25% DNFB on their back skin, which was repeated three times per week for 22 days. Skin rash was monitored over the duration of the study.\nMice were treated with 0.5 mM pitavastatin in 200 μL 70% ethanol or 200 μL 70% ethanol alone to their back skin twice a week. Pitavastatin/70% ethanol treatments were given in DNFB doses.\nTissue samples were collected and fixed in 4% paraformaldehyde (Millipore Sigma, catalog no. P6148) overnight at 4° C. Next, tissues were dehydrated in ethanol, processed and embedded in paraffin. 5 μm sections paraffin-embedded tissues were placed on slides, deparaffinized and stained with H&E or toluidine blue (for mast cell detection). For immunohistochemistry, antigen retrieval was performed in 500 μL of antigen unmasking solution (VECTOR Laboratories, Burlingame, Calif., catalog no. H3300) diluted in 50 mL water using Cuisinart pressure cooker for 20 min at high pressure. Slides were washed three times for three minutes each in 1×TBS with 0.025% Triton X-100. Sections were blocked with 1% bovine serum albumin (Thermo Fisher Scientific, catalog no. BP1600) and 5% goat serum (Millipore Sigma, catalog no. G9023) for 1 hour. Slides were stained overnight at 4° C. with a primary antibody diluted in TBS containing 1% BSA (Appendix Table S2). The following day, slides were washed as above and incubated in 100 μL biotinylated secondary antibody (VECTOR Laboratories, catalog no. PK-6200) for 30 min. After washing, slides were incubated with 100 μL mixture of reagent A and B from VECTASTAIN Elite ABC universal kit Peroxidase (VECTOR Laboratories, catalog no. PK-6200) for 30 min. After washing, slides were incubated with 100 μL ImmPACT DAB chromogen stating (VECTOR Laboratories, catalog no. SK-4105) for a few minutes. Finally, slides dehydrated in ethanol and xylene and mounted with a coverslip using 3 drops of mounting media.\nNext, we also investigated effect of pitavastatin in vivo chronic inflammation model. […] Next, we studied the effect of pitavastatin treatment on chronic inflammation in mice. […] Furthermore, both IL-33 and nuclear IRF3 were reduced in same epithelial region of DNFB plus pitavastatin versus DNFB plus carrier treated mice (FIGS. 12D and E). Thus, pitavastatin is a small molecule IL-33 inhibitor that suppresses skin inflammation."}, "[2]": {"system": "Caerulein-injected mouse pancreas", "assay": "Caerulein chronic pancreatitis model with pitavastatin", "format": "in vivo", "protocol": "Mice were weighed and injected with 50 μg/kg caerulein (BACHEM, Torrance, Calif., catalog no. 4030451) in 100 μL of PBS intraperitoneally every hour for 6 hours, three days per week for 3 weeks and mice were harvested.\n1 mM of pitavastatin was dissolved in DMSO for stock, and then 100 uM was dissolved in PBS with caerulein for mice injection. Mice were injected with caerulein.\nTissue samples were collected and fixed in 4% paraformaldehyde (Millipore Sigma, catalog no. P6148) overnight at 4° C. Next, tissues were dehydrated in ethanol, processed and embedded in paraffin. 5 μm sections paraffin-embedded tissues were placed on slides, deparaffinized and stained with H&E or toluidine blue (for mast cell detection). For immunohistochemistry, antigen retrieval was performed in 500 μL of antigen unmasking solution (VECTOR Laboratories, Burlingame, Calif., catalog no. H3300) diluted in 50 mL water using Cuisinart pressure cooker for 20 min at high pressure. Slides were washed three times for three minutes each in 1×TBS with 0.025% Triton X-100. Sections were blocked with 1% bovine serum albumin (Thermo Fisher Scientific, catalog no. BP1600) and 5% goat serum (Millipore Sigma, catalog no. G9023) for 1 hour. Slides were stained overnight at 4° C. with a primary antibody diluted in TBS containing 1% BSA (Appendix Table S2). […]"}, "[3]": {"system": "p-IRF3 bindings to Il33 promoter region", "assay": "ChIP assay, p-IRF3 binding to Il33 promoter region in Pam212 cells", "format": "cell-based, mouse", "conditions": "compared to only Poly (I:C) treated group", "protocol": "Pam212 cells that had been transfected with plasmids were fixed in 1% formaldehyde (Millipore Sigma, catalog no. F8775) for 10 min and were washed by cold PBS. Cells were lysed with buffer contained with 2.5% of glycerol, 50 mM HEPES (pH 7.5), 150 mM NaCl, 0.5 mM EDTA, 0.5% NP-40 and 0.25% Triton X-100. After centrifugation at 2,000 rpm, cells lysate were resuspended in buffer A contained with 1 mM Tris/HCl (pH 7.9), 20 mM NaCl and 0.5 mM EDTA and incubated at room temperature for 10 min. Following the second centrifugation at 2,000 rpm, cells were sonicated in sonication buffer containing 10 mM HEPES, 1 mM EDTA and 0.5% SDS for 30 min to achieve chromatin fragmentation. Following centrifugation at 13,000 rpm, proteins were immunoprecipitated with HA antibody at 4° C. overnight. Next day, the samples were incubated with 30 μL 50% slurry of ChIP-Grade Protein G agarose beads (Cell Signaling Technology, catalog no. 9007S) for 2 hours. Samples were precipitated, washed three times with wash buffer containing 20 mM Tris/HCl (pH 7.9), 10 mM NaCl, 2 mM EDTA, 0.1% SDS and Triton X-100. After the last wash step, samples were eluted with 100 μL of TE buffer contained with 100 mM Tris/HCl (pH 8), 1 mM EDTA and 1% SDS for three times. […] Precipitated DNA was purified by CMP DNA Clean & Concentrator (ZYMO research, Irvine, Calif., catalog no. D5205) and subjected to quantitative PCR. […]"}, "[4]": {"conditions": "DNFB plus pitavastatin versus DNFB plus carrier"}, "[5]": {"conditions": "topical DNFB plus pitavastatin vs DNFB plus carrier"}}, "data": [{"smiles": "O=C(O)C[C@H](O)C[C@H](O)/C=C/c1c(C2CC2)nc2ccccc2c1-c1ccc(F)cc1", "note": "[pitavastatin]", "values": [{"measurement": "chronic inflammation in back skin", "setting": "[1]; 0.5 mM pitavastatin in 200 μL 70% ethanol on back skin twice a week, compared to only DNFB treated mice", "value": "mild chronic inflammation"}, {"measurement": "IL-33 in epithelial region (staining)", "setting": "[1]; [4]", "value": "reduced"}, {"measurement": "nuclear IRF3 in epithelial region (staining)", "setting": "[1]; [4]", "value": "reduced"}, {"measurement": "IL-33 expression, RNA level", "setting": "[1]; DNFB treated mice skin", "value": "decreased"}, {"measurement": "IL-33 expression, protein level", "setting": "[1]; DNFB treated mice skin", "value": "decreased"}, {"measurement": "p-IRF3", "setting": "[1]; compared to only DNFB treated group", "value": "decreased"}, {"measurement": "epidermal thickness", "setting": "[1]; [5]", "value": "reduced"}, {"measurement": "mast cell infiltration", "setting": "[1]; [5]", "value": "reduced"}, {"measurement": "severity of pancreatitis", "setting": "[2]; 100 uM pitavastatin in PBS injected with caerulein, vs severe pancreatitis in caerulein plus carrier", "value": "mild pancreatitis"}, {"measurement": "inflammatory cell infiltrates in pancreas (H&E)", "setting": "[2]; Caerulein-injected mouse pancreas with or without pitavastatin", "value": "reduction"}, {"measurement": "Poly (I:C) induced p-IRF3 bindings to Il33 promoter region", "setting": "[3]", "value": "significantly reduced"}]}]}
